From PubChem BioAssay (NCI)
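Results reflect a 48-hour exposure of cells in 96-well plates to compound at five concentrations. GI50 marks 50% less growth. At the TGI there is no net growth.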

Key:
Experiment in all cases: NCI anticancer screen, dose series, 48 h
[1] = test system: HCT-116 colon
[2] = test system: NCI-H522 lung
[3] = test system: SK-OV-3 ovarian
[4] = test system: MCF7 breast
[5] = test system: K-562 leukemia
[6] = test system: KM12 colon
[7] = test system: MDA-MB-435
[8] = test system: NCI/ADR-RES ovarian
[9] = test system: PC-3 prostate
[10] = test system: MOLT-4 leukemia
[11] = test system: SK-MEL-5 melanoma
[12] = test system: LOX IMVI melanoma
[13] = test system: HL-60(TB) leukemia
[14] = test system: UO-31 renal
[15] = test system: EKVX NSCLC
[16] = test system: OVCAR-4 ovarian
[17] = test system: IGROV1 ovarian
[18] = test system: HT29 colon
[19] = test system: NCI-H23 lung
[20] = test system: SK-MEL-28 melanoma
[21] = test system: 786-0 renal
[22] = test system: OVCAR-3 ovarian
[23] = test system: OVCAR-8 ovarian
[24] = test system: HOP-92 NSCLC
[25] = test system: SNB-19 CNS
[26] = test system: SF-295 CNS
[27] = test system: NCI-H460 lung
[28] = test system: CAKI-1 renal
[29] = test system: DU-145 prostate
[30] = test system: HCC-2998 colon
[31] = test system: MALME-3M melanoma
[32] = test system: SN12C renal
[33] = test system: SR leukemia
[34] = test system: SW-620 colon
[35] = test system: SF-539 CNS
[36] = test system: T-47D breast
[37] = test system: BT-549 breast
[38] = test system: HCT-15 colon
[39] = test system: SK-MEL-2 melanoma
[40] = test system: MDA-MB-231 breast
[41] = test system: UACC-62 melanoma
[42] = test system: HS 578T breast
[43] = test system: ACHN renal
[44] = test system: RPMI-8226 leukemia
[45] = test system: SNB-75 CNS
[46] = test system: NCI-H226 lung
[47] = test system: SF-268 CNS
[48] = test system: TK-10 renal
[49] = test system: A498 renal
[50] = test system: CCRF-CEM leukemia
[51] = test system: U251 CNS
[52] = test system: A549 NSCLC
[53] = test system: M14 melanoma
[54] = test system: COLO 205 colon
[55] = test system: OVCAR-5 ovarian
[56] = test system: HOP-62 NSCLC

COc1ccc(/C=C2\COc3ccc(-c4ccccc4)cc3C2=O)cc1O
GI50 [1]: 1.72 µM
TGI [1]: 3.53 µM
GI50 [2]: 2.4 µM
TGI [2]: 10.5 µM
GI50 [3]: 4.16 µM
TGI [3]: 22.3 µM
GI50 [4]: 1.58 µM
TGI [4]: 13 µM
GI50 [5]: 3.6 µM
TGI [5]: > 100 µM
GI50 [6]: 1.75 µM
TGI [6]: 4.09 µM
GI50 [7]: 2.03 µM
TGI [7]: 15.9 µM
GI50 [8]: 3.39 µM
TGI [8]: 14 µM
GI50 [9]: 3.41 µM
TGI [9]: > 100 µM
GI50 [10]: 2.34 µM
TGI [10]: 83.6 µM
GI50 [11]: 1.51 µM
TGI [11]: 3.68 µM
GI50 [12]: 1.85 µM
TGI [12]: 3.87 µM
GI50 [13]: 2.29 µM
TGI [13]: > 100 µM
GI50 [14]: 4.16 µM
TGI [14]: 16.1 µM
GI50 [15]: 6.71 µM
TGI [15]: > 100 µM
GI50 [16]: 4.18 µM
TGI [16]: 30.8 µM
GI50 [17]: 4.37 µM
TGI [17]: 15.9 µM
GI50 [18]: 1.46 µM
TGI [18]: 3.85 µM
GI50 [19]: 4.09 µM
TGI [19]: 16.6 µM
GI50 [20]: 1.88 µM
TGI [20]: 3.96 µM
GI50 [21]: 5.02 µM
TGI [21]: 15.7 µM
GI50 [22]: 1.76 µM
TGI [22]: 4.97 µM
GI50 [23]: 2.43 µM
TGI [23]: 6.56 µM
GI50 [24]: 2.55 µM
TGI [24]: 18.9 µM
GI50 [25]: 3.38 µM
TGI [25]: 17.2 µM
GI50 [26]: 4.4 µM
TGI [26]: 21.7 µM
GI50 [27]: 2.07 µM
TGI [27]: 5.8 µM
GI50 [28]: 4.61 µM
TGI [28]: 32.9 µM
GI50 [29]: 2.49 µM
TGI [29]: 9.69 µM
GI50 [30]: 3.31 µM
TGI [30]: 10.3 µM
GI50 [31]: 1.04 µM
TGI [31]: 4.31 µM
GI50 [32]: 3.78 µM
TGI [32]: 14.5 µM
GI50 [33]: 2 µM
TGI [33]: > 100 µM
GI50 [34]: 1.82 µM
TGI [34]: 3.72 µM
GI50 [35]: 2.45 µM
TGI [35]: 6.38 µM
GI50 [36]: 3.28 µM
TGI [36]: 30.2 µM
GI50 [37]: 1.69 µM
TGI [37]: 5.57 µM
GI50 [38]: 1.69 µM
TGI [38]: 4.37 µM
GI50 [39]: 2.17 µM
TGI [39]: 6.1 µM
GI50 [40]: 3.98 µM
TGI [40]: 20.2 µM
GI50 [41]: 3.59 µM
TGI [41]: 18.1 µM
GI50 [42]: 2.72 µM
TGI [42]: 7.56 µM
GI50 [43]: 3.13 µM
TGI [43]: 13.1 µM
GI50 [44]: 3.61 µM
TGI [44]: > 100 µM
GI50 [45]: 2.71 µM
TGI [45]: 8.77 µM
GI50 [46]: 15.3 µM
TGI [46]: 32.9 µM
GI50 [47]: 3.18 µM
TGI [47]: 12.7 µM
GI50 [48]: 2.14 µM
TGI [48]: 8.3 µM
GI50 [49]: 2.4 µM
TGI [49]: 6.1 µM
GI50 [50]: 2.03 µM
TGI [50]: > 100 µM
GI50 [51]: 1.83 µM
TGI [51]: 4.27 µM
GI50 [52]: 2.96 µM
TGI [52]: 18.9 µM
GI50 [53]: 3.41 µM
TGI [53]: 14.6 µM
GI50 [54]: 3.68 µM
TGI [54]: 21.9 µM
GI50 [55]: 4.13 µM
TGI [55]: 14.7 µM
GI50 [56]: 5.83 µM
TGI [56]: 19.4 µM
